Earlier results on 90 compounds are cited in the CATMoS acute toxicity set (Mansouri et al. 2021).

SMILES strings stand for the structures. Where “and” joins values, the source holds several entries; their conditions need not be identical. Equal entries are not always repeated.

A short description of this data set: rat acute oral toxicity. Particulars: in vivo.
What is called LD50 is the dose expected to kill half of the subjects tested. As for `Nc1ccc2nc(C(F)(F)F)[nH]c2c1`, the LD50 was 67 mg/kg. Turning to `O=C(O)C(F)(F)C(F)F`, the median lethal dose (LD50) is 8570 mg/kg. Turning to `CCS(=O)(=O)CCO`, the 50% lethal dose (LD50) is 18000 mg/kg. Turning to `COc1ccc(C=O)cc1`, the LD50 is 1510 mg/kg. For the compound `O=C(OCCCOC(=O)c1ccccc1)c1ccccc1`, the LD50 was 24000 mg/kg. With `ClCCOCCOCCOCCCl`, the LD50 is 180 mg/kg. In the case of `O=S1(=O)CCC(Br)C1` (stereo not given), the LD50 was 215 mg/kg.

`CCOP(N)(=O)SC` (stereo not given): the LD50 is 5 mg/kg. Turning to `C=CCSP(=O)(NC(=O)CC)OC` (stereo not given), the LD50 was 125 mg/kg. As to `CC(C)(C)C(=O)CC#N`, the LD50 was 283 mg/kg. As for `COc1cccc(C(=O)NC2CC3CCC(C2)N3Cc2ccccc2)c1OC` (stereo not given), the LD50 was 147 mg/kg. As to `CCCCCCCCCc1ccc(O)cc1`, the LD50 was 1620 mg/kg. With `Nc1cccc(C(F)(F)F)c1`, the LD50 is 480 mg/kg.

As for `Cc1c(Cl)cccc1Nc1ccccc1C(=O)O`, the LD50 is 225 mg/kg. With `COc1ccc([N+](=O)[O-])cc1`, the median lethal dose (LD50) is 2300 mg/kg. On to `CNCCC=C1c2ccccc2CCc2ccccc21`, for which the LD50 is 502 mg/kg and 405 mg/kg.

As to `C[C@H](N)Cc1ccccc1`, the LD50 was 38 mg/kg. For `Nc1cc2c(S(=O)(=O)O)cccc2c(S(=O)(=O)O)c1N`, the median lethal dose (LD50) was 29000 mg/kg. With `O=C=NCCCCCCNC(=O)N(CCCCCCN=C=O)C(=O)NCCCCCCN=C=O`, the LD50 is 19800 mg/kg. Take `O=[N+]([O-])c1cccc(C(F)(F)F)c1`: the LD50 was 610 mg/kg.

Regarding `CCC[C@]1(c2cccc(O)c2)CCN(C)C[C@@H]1C`, the LD50 was 887 mg/kg. Regarding `O=C(CCCN1CCN(c2ccccc2)CC1)c1ccc(F)cc1`, the LD50 is 550 mg/kg. Regarding `COc1ccc(O)c(C(N)=O)c1`, the median lethal dose (LD50) was 1900 mg/kg.

Consider `Cc1ncoc1C#N`, for which the LD50 was 735 mg/kg. For `N#C[C@H](O[C@@H]1O[C@H](CO)[C@@H](O)[C@H](O)[C@H]1O)c1ccccc1`, the LD50 was 560 mg/kg. Turning to `CCCCCCS`, the 50% lethal dose (LD50) was 1250 mg/kg. `CCOC(=O)C1=CN(CC)C2CCCC(C)N2C1=O` (stereo not given): the median lethal dose (LD50) was 746 mg/kg.

Consider `CN(C)C(=O)Nc1cccc(OC(=O)NC(C)(C)C)c1`, for which the LD50 was 3000 mg/kg.

`CC(=O)[C@H]1CC[C@H]2[C@@H]3CC[C@H]4C[C@H](O)CC[C@]4(C)[C@H]3C(=O)C[C@]12C`: the LD50 was 297 mg/kg. Take `C=CCC1(C2C=CCC2)C(=O)N=C(O)NC1=O` (stereo not given): the 50% lethal dose (LD50) is 205 mg/kg. In the case of `CC(=O)OC1=C(c2c(C)cc(C)cc2C)C(=O)c2ccccc21`, the 50% lethal dose (LD50) is 8000 mg/kg. In the case of `Cc1ccc(N(CC2=NCCN2)c2cccc(O)c2)cc1`, the LD50 is 1250 mg/kg. With `CCC(C(O)c1ccc2[nH]c(=O)ccc2c1)N1CCN(c2cccc(Cl)c2)CC1` (stereo not given), the LD50 was 500 mg/kg.

`O=C=Nc1ccc(Cc2ccc(N=C=O)cc2)cc1`: the LD50 was 9200 mg/kg. Consider `Cc1nn(C)c(OCC(=O)c2ccccc2)c1C(=O)c1ccc(Cl)cc1Cl`, for which the LD50 was 1640 mg/kg.

Regarding `Nc1ccc(Oc2ccc(N)cc2)cc1`, the LD50 is 725 mg/kg.

`CCCCCCCCCCCCN(C)C`: the LD50 is 800 mg/kg. As for `CC(=O)Oc1ccc(C2(c3ccc(OC(C)=O)cc3)C(=O)N(C(C)=O)c3ccccc32)cc1`, the LD50 was 500 mg/kg. Regarding `C=C(F)CO`, the median lethal dose (LD50) was 130 mg/kg.

On to `Cc1ccnc(N)c1`, for which the median lethal dose (LD50) was 200 mg/kg.

As to `COC(=O)C1=C(C)NC(C)=C(C(=O)OCCN2CCN(C(c3ccccc3)c3ccccc3)CC2)C1c1cccc([N+](=O)[O-])c1` (stereo not given), the LD50 is 156 mg/kg.

Regarding `CCN=C1SC(=NOC(=O)NC)C(C)(C)S1`, the LD50 was 6.3 mg/kg. With `CN(C)C(=S)SSC(=S)N(C)C`, the LD50 was 560 mg/kg. Consider `C1CNCCN1`, for which the LD50 was 4900 mg/kg. For `CCCN1C[C@H](CSC)C[C@@H]2c3cccc4[nH]cc(c34)C[C@H]21`, the LD50 was 8.4 mg/kg. As to `Nc1ncnc2[nH]cnc12`, the median lethal dose (LD50) was 227 mg/kg. Regarding `CCCCOCC`, the median lethal dose (LD50) is 1870 mg/kg. Turning to `COc1cc2ccc(=O)oc2cc1OC`, the median lethal dose (LD50) was 292 mg/kg.

In the case of `O=C1C=CC(=O)c2ccccc21`, the LD50 is 190 mg/kg.

With `CC(C)(C)N(CCO)CCO`, the 50% lethal dose (LD50) is 2720 mg/kg. Regarding `COc1ccc2c(c1)OC(C)(C)C(c1ccccc1)=C2c1ccc(OCCO)cc1`, the median lethal dose (LD50) is 500 mg/kg. Regarding `O=C(O)Cc1ccccc1Oc1ccc(Cl)cc1Cl`, the median lethal dose (LD50) was 2280 mg/kg.

Take `COC1CC(=C(c2cccs2)c2cccs2)C[N+](C)(C)C1` (stereo not given): the median lethal dose (LD50) is 1210 mg/kg.

Consider `O=NN(CCO)CCO`, for which the LD50 is 7500 mg/kg. For the compound `O=Cc1ccc(Cl)cc1`, the median lethal dose (LD50) was 1580 mg/kg. Turning to `N#CC(F)(F)C(F)(F)C(F)(F)C#N`, the 50% lethal dose (LD50) was 2600 mg/kg. As for `Oc1ccc2nc(C(F)(F)F)[nH]c2c1`, the median lethal dose (LD50) is 41 mg/kg. Regarding `Oc1ccc2ccccc2c1Cl`, the LD50 was 2310 mg/kg. Consider `O=C1c2cccc(Br)c2C(=O)C1c1ccccc1` (stereo not given), for which the median lethal dose (LD50) was 745 mg/kg. As to `COc1cc(C)c2[nH]c(=O)sc2c1`, the LD50 is 7580 mg/kg. As to `COc1ccc2c3c1O[C@H]1[C@@H](OC(=O)c4cccnc4)C=C[C@H]4[C@@H](C2)N(C)CC[C@@]341`, the LD50 is 840 mg/kg.

Regarding `CCO[Si](C)(CCCCN)OCC`, the median lethal dose (LD50) is 6500 mg/kg.

Consider `COC(=O)c1c(Cl)c(Cl)c(C(=O)SC)c(Cl)c1Cl`, for which the LD50 is 3300 mg/kg. For `CC(O)COC(=O)CBr` (stereo not given), the 50% lethal dose (LD50) was 664 mg/kg. With `CCCCCCCc1ccc(C)cc1O`, the LD50 was 3320 mg/kg. Take `Cn1c2c(c3ccccc31)CCN(CCCN1CCN(c3ccccc3)CC1)C2=O`: the LD50 was 650 mg/kg. In the case of `c1ccc2c(c1)CCCC2`, the 50% lethal dose (LD50) was 2860 mg/kg. For the compound `CCN(CC)CCNC(=O)c1cc(S(C)(=O)=O)ccc1OC`, the LD50 is 4840 mg/kg. With `O=C(CCCN1CC=C(n2c(=O)[nH]c3ccccc32)CC1)c1ccc(F)cc1`, the LD50 was 750 mg/kg. With `OC(c1ccccc1)(c1ccccc1)C1CCCCN1` (stereo not given), the LD50 is 180 mg/kg. `O=COCCCc1ccccc1`: the median lethal dose (LD50) is 4090 mg/kg. As for `CCCCCCCC(=O)NO`, the LD50 is 10700 mg/kg. Take `COC(=O)C1CCC(C(=O)OC)CC1` (stereo not given): the LD50 is 2810 mg/kg.

On to `N#CN=c1ccccn1Cc1c(Cl)cccc1Cl`, for which the LD50 is 500 mg/kg. Turning to `C=C(CCl)CCl`, the LD50 was 150 mg/kg.

Turning to `O=C(/C=C/C=C/c1ccc2c(c1)OCO2)N1CCCCC1`, the LD50 is 514 mg/kg. On to `CCN(CC)CCOC(=O)Cc1ccc2c(c1)OCc1ccccc1C2=O`, for which the LD50 was 150 mg/kg. `CNc1snc2ccccc12`: the median lethal dose (LD50) was 400 mg/kg. Regarding `CCCCOC(=O)CC(C(=O)OCCCC)P(=O)(OCCCC)OCCCC` (stereo not given), the LD50 was 25000 mg/kg. `COC(=O)C=Cc1ccccc1`: the LD50 was 2610 mg/kg. Turning to `CCN(CC)CCOC(=O)c1ccc(N)cc1`, the median lethal dose (LD50) is 200 mg/kg. Take `Nc1ccc(OP(=O)(Oc2ccc(N)cc2)Oc2ccc(N)cc2)cc1`: the median lethal dose (LD50) is 138 mg/kg. As to `CCOC(=O)CS`, the LD50 is 178 mg/kg. On to `Cc1ccc(S(=O)(=O)NC(=O)NN2CC3CCCC3C2)cc1` (stereo not given), for which the LD50 is 3000 mg/kg. As to `O=C(O)c1ccccc1C(=O)Nc1ccccc1`, the median lethal dose (LD50) was 8840 mg/kg.

In the case of `CCCn1c2ccccc2c2cc(N)ccc21`, the LD50 is 423 mg/kg. Turning to `N#C[Se]Cc1ccccc1`, the LD50 is 98.5 mg/kg. As for `O=C1OC(c2ccc(O)cc2)(c2ccc(O)cc2)c2c(I)c(I)c(I)c(I)c21`, the 50% lethal dose (LD50) is 2800 mg/kg.

`C=CC(=O)OCCCCOC(=O)C=C`: the 50% lethal dose (LD50) is 587 mg/kg. Take `CC1(C)S[C@@H]2[C@H](NC(=O)Cc3ccccc3)C(=O)N2[C@H]1C(=O)O`: the 50% lethal dose (LD50) was 8900 mg/kg and 8000 mg/kg and 6920 mg/kg.
